{"source": "patent US9801844B2", "about": "“Methods and compositions for the treatment of cancer” (priority 2012, dated 2017)", "tested_on": "MDA-MB-453 human breast cancer cells", "test": "Cell cycle analysis by DNA flow cytometry", "assay_type": "cell-based", "settings": "48 h", "method": "For cell cycle analysis the cells were plated (3×105) onto 6 cm dishes and allowed to attach for 24 h. Then the medium was replaced with DMEM containing 10% FBS and DMSO or agents. After 48 h, the cells were analyzed by DNA flow cytometry.\nTo examine the effects of rosemary on the cell cycle, MDA-MB-453 human breast cancer cells were treated with rosemary extract enriched for CA (50%) at 40 or 80 μg/ml and purified CA at 10, 20 or 40 μg/ml for 48 h. The cells were then stained with propidium iodide and the stained cells were analyzed by DNA flow cytometry (Table 1).\nMDA-MB-453 cells were treated with 0, 10, 20, or 40 μg/ml of carnosic acid or 40, 80 μg/ml of rosemary extract (carnosic acid: 50%), and analyzed at 48 hr by DNA flow cytometry. The values indicate the % of cells in the cell cycle phases.", "data": [{"smiles": "CC(C)c1cc2c(c(O)c1O)[C@@]1(C(=O)O)CCCC(C)(C)[C@@H]1CC2", "note": "[carnosic acid]", "values": [{"measurement": "% of Cells G1", "setting": "10 ug/ml", "result": 51.2, "unit": "%"}, {"measurement": "% of Cells G2", "setting": "10 ug/ml", "result": 11.8, "unit": "%"}, {"measurement": "% of Cells Sub G1", "setting": "10 ug/ml", "result": 1.5, "unit": "%"}, {"measurement": "% of Cells S", "setting": "10 ug/ul", "result": 31.2, "unit": "%"}, {"measurement": "% of Cells G1", "setting": "20 ug/ml", "result": 71.9, "unit": "%"}, {"measurement": "% of Cells G2", "setting": "20 ug/ml", "result": 9.1, "unit": "%"}, {"measurement": "% of Cells Sub G1", "setting": "20 ug/ml", "result": 1.7, "unit": "%"}, {"measurement": "% of Cells S", "setting": "20 ug/ul", "result": 15.3, "unit": "%"}, {"measurement": "% of Cells G1", "setting": "40 ug/ml", "result": 50.8, "unit": "%"}, {"measurement": "% of Cells G2", "setting": "40 ug/ml", "result": 13.9, "unit": "%"}, {"measurement": "% of Cells Sub G1", "setting": "40 ug/ml", "result": 1.6, "unit": "%"}, {"measurement": "% of Cells S", "setting": "40 ug/ul", "result": 28.9, "unit": "%"}]}]}
